Results taken from patent publication US7686852B2, “Monoazo dyes” (Clariant Finance (BVI) Limited, priority 2004, dated 2010).

Legend:
[1] = Comparative Test Series 3: stability of dye solution after cooling to 25° C. and 48 hours, filtration test; assay type: physicochemical; parameters: key to Aspect of the solution after the 48 hours: 1): after cooling down turned immediately cloudy; 2): remained clear after cooling down; key to Grade of the visual inspection of the upper filter: a grade of 5 signifies no residue; 4 signifies little, fine residues; 3 signifies bigger residues; 2 signifies coarse residues; 1 signifies a compact layer of precipitated dyestuff; settings: for Aspect of the solution after the 48 hours: dissolved at 90° C., kept at 25° C. for 48 hour; for time for passing of the 200 ml of dye solution trough the 2 filter layers / Grade of the visual inspection of the upper filter: after 48 hour at 25° C.; for Grade of the visual inspection of the upper filter: filtered through 2 paper filters
Procedure: In 160 ml of water a certain amount of dyestuff was dissolved at 90° C. and the resulting solution was diluted to 200 ml by adding water of 90° C. This solution was put in a water bath kept at 25° C. and after the dye solution was at 25° the dye solution was let for 48 hour without stirring or shaking at 25° C.
The solution was visually inspected first and the filtrated trough 2 layers of paper filters of 70 mm diameter (Typ 1450 CV obtainable from Schleicher & Schuell MicroScience GmbH
Hahnestrasse 3; D-37586 Dassel). The time for passing of the 200 ml of dye solution was measured and the upper filter was inspected visually. Grades are given and a grade of 5 signifies no residue, 4 signifies little, fine residues, 3 signifies bigger residues, 2 signifies coarse residues and 1 signifies a compact layer of precipitated dyestuff.

[2] = hot water, then cooling; cited from earlier work
[3] = Solubility in water / stability of stock solutions; assay type: physicochemical; settings: room temperature

**Q.** With `Cc1ccc(S(=O)(=O)Oc2ccc(/N=N/c3ccc(Nc4ccc(S(=O)(=O)O)cc4[N+](=O)[O-])cc3)c(C)c2)cc1` as the compound, how does the “Aspect of the solution after the 48 hours” value (“Aspect of the solution” below) ([1]; 6 g/Liter in water) read?
**A.** 1)

**Q.** What about the “time for passing of the 200 ml of dye solution trough the 2 filter layers” value (“time for passing” below) ([1]; 6 g/Liter) of the same compound?
**A.** 16 s

**Q.** What about the “Grade of the visual inspection of the upper filter” value (“Grade … of the upper filter” below) ([1]; 6 g/Liter) of the same compound?
**A.** 4

**Q.** What about the “Aspect of the solution” value ([1]; 12 g/Liter in water) of the same compound?
**A.** 1)

**Q.** What about the “time for passing” value ([1]; 12 g/Liter) of the same compound?
**A.** 27 s

**Q.** And the “Grade … of the upper filter” value ([1]; 12 g/Liter)?
**A.** 3

**Q.** What about the “Aspect of the solution” value ([1]; 20 g/Liter in water) of the same compound?
**A.** 1)

**Q.** What about the “time for passing” value ([1]; 20 g/Liter) of the same compound?
**A.** 33 s

**Q.** What about the “Grade … of the upper filter” value ([1]; 20 g/Liter) of the same compound?
**A.** 2 to 3

**Q.** And the “Aspect of the solution” value ([1]; 30 g/Liter in water)?
**A.** 1)

**Q.** What about the “time for passing” value ([1]; 30 g/Liter) of the same compound?
**A.** 95 s

**Q.** What about the “Grade … of the upper filter” value ([1]; 30 g/Liter) of the same compound?
**A.** 1 to 2

**Q.** What about the solubility in water [2] of the same compound?
**A.** soluble in hot water, but partly reprecipitates on cooling

**Q.** Which “Aspect of the solution” value ([1]; 6 g/Liter in water) does the source give for `Cc1cc(OS(=O)(=O)c2ccc(C(C)(C)C)cc2)ccc1/N=N/c1ccc(Nc2ccc(S(=O)(=O)O)cc2[N+](=O)[O-])cc1` [Example 1] here?
**A.** 2)

**Q.** What about the “time for passing” value ([1]; 6 g/Liter) of the same compound?
**A.** 6 s

**Q.** What about the “Grade … of the upper filter” value ([1]; 6 g/Liter) of the same compound?
**A.** 4

**Q.** What about the “Aspect of the solution” value ([1]; 12 g/Liter in water) of the same compound?
**A.** 2)

**Q.** And the “time for passing” value ([1]; 12 g/Liter)?
**A.** 7 s

**Q.** What about the “Grade … of the upper filter” value ([1]; 12 g/Liter) of the same compound?
**A.** 3 to 4

**Q.** And the “Aspect of the solution” value ([1]; 20 g/Liter in water)?
**A.** 2)

**Q.** What about the “time for passing” value ([1]; 20 g/Liter) of the same compound?
**A.** 7 s

**Q.** What about the “Grade … of the upper filter” value ([1]; 20 g/Liter) of the same compound?
**A.** 3

**Q.** What about the “Aspect of the solution” value ([1]; 30 g/Liter in water) of the same compound?
**A.** 2)

**Q.** What about the “time for passing” value ([1]; 30 g/Liter) of the same compound?
**A.** 8 s

**Q.** And the “Grade … of the upper filter” value ([1]; 30 g/Liter)?
**A.** 2 to 3

**Q.** What about the “stability of stock solutions” value [3] of the same compound?
**A.** remain clear for several weeks even at room temperature
